The record followed here is patent publication US9073900B2, “Dihydroquinone derivatives of piperidine and piperazine” (KING FAHD UNIVERSITY OF PETROLEUM AND MINERALS, priority 2013, dated 2015).

Regarding `O=C1NCc2ccc(N3CCN(Cc4ccc(-c5ccccc5)cc4)CC3)cc2N1` [Compound 5a, 7-(4-(biphenyl-4-ylmethyl)piperazin-1-yl)-3,4-dihydroquinazolin-2(1H)-one], the melting point (usually the temperature of the solid-liquid transition) was 134 to 135 °C.

The molecule `O=C1NCc2ccc(N3CCN(Cc4ccc(-c5ccc(F)cc5)cc4)CC3)cc2N1` [Compound 5b, 7-(4-((4′-fluorobiphenyl-4-yl)methyl)piperazin-1-yl)-3,4-dihydroquinazolin-2(1H)-one] had a melting point of 220 to 221 °C. `O=C1NCc2ccc(N3CCN(Cc4cncc(-c5ccc(F)cc5)c4)CC3)cc2N1` [Compound 5d, 7-(4-((5-(4-fluorophenyl)pyridin-3-yl)methyl)piperazin-1-yl)-3,4-dihydroquinazolin-2(1H)-one] yielded a melting point of 180 to 181 °C. For the molecule `O=C1NCc2ccc(N3CCN(Cc4cncc(C5=CCCC5)c4)CC3)cc2N1` [Compound 5f, 7-(4((5-cyclopentenylpyridin-3-yl)methyl)piperazin-1-yl)-3,4-dihydroquinazolin-2(1H)-one], the melting point lay within 185 to 186 °C. Molecule `O=C1NCc2ccc(C3CCN(Cc4ccc(-c5ccc(F)cc5)cc4)CC3)cc2N1` [Compound 6b, 7-(1-((4′-fluorobiphenyl-4-yl)methyl)piperidin-4-yl)-3,4-dihydroquinazolin-2(1H)-one] gave a melting point of 160 to 161 °C. For `O=C1NCc2ccc(C3CCN(Cc4cncc(C5=CCCC5)c4)CC3)cc2N1` [Compound 6f, 7-(1-((5-cyclopentenylpyridin-3-yl)methyl)piperidin-4-yl)-3,4-dihydroquinazolin-2(1H)-one] the value was 166 to 167 °C.
